Assay results as given in article PMC11574021, “CEP192 localises mitotic Aurora-A activity by priming its interaction with TPX2” (The EMBO Journal, 2024).

Assays:
[1] = tested on: Aurora-A-pT288 in U251 cells; assay: Immunofluorescence, Aurora-A-pT288 spindle pole signal intensity, U251; type: cell-based, Homo sapiens; details: U251, siRNA 48 h or Aurora-A inhibitor 30 min (250 nM)
Method: (§1) Drugs were resuspended in DMSO to the stock concentrations indicated in square brackets.
(§2) For immunofluorescence, 1 × 10^5 cells were seeded in six-well plates and simultaneously transfected with 60 pmol siRNA duplex and 3 µl transfection reagent diluted in 200 µl Opti-MEM serum-free medium. Growth medium was added to a final volume of 2 ml. For western blotting, 1 × 10^6 cells were seeded in 10 cm dishes and transfected with 300 pmol siRNA duplex and 15 µl transfection reagent diluted in 1000 µl Opti-MEM. Growth medium was added to a final volume of 10 ml. Cells were incubated with siRNA for 48 h prior to fixation or harvesting. As a negative control (siControl) Silencer select negative control No.1 siRNA was transfected as above. For TACC3 depletion, where two siRNA duplexes were used, 40 pmol of each was transfected per well.
For siRNA depletion, 1 × 10^5 cells were seeded in six-well plates and transfected as described above for 48 h prior to fixation. For all other experiments, 2.5 × 10^5 cells were seeded in six-well plates and grown for 24 h before fixation. […] Cells in Fig. EV4A were fixed using 4% (wt/v) paraformaldehyde (PFA) in PBS for 12 min, followed by 10 min quenching in 50 mM NH4Cl in PBS and 5 min of permeabilization with 0.2% (v/v) Triton X-100 in PBS, all at room temperature. For centriole staining in Fig. EV4E, cells were fixed in pre-chilled methanol for 10 min at −20 °C, incubated in PBS for 10 min and then 5 min in 0.5% Triton-X-100, 0.5% Tween, 0.05% SDS in PBS (v/v). […]
(§3) Here “area” refers to the area of DAPI-stained DNA, determined by thresholding (default mode) the region of interest. […] The diameter calculated, therefore, refers to that of a circle with equivalent area to the DAPI signal measured previously. The area of the nuclear DAPI signal (Appendix Fig. S6I) was determined by thresholding (as above). […] All fluorescence intensity and area measurements were obtained from maximum intensity z-projections. […]

[2] = tested on: Aurora-A in U251 cells; assay: Immunofluorescence, Aurora-A spindle pole signal intensity, U251; type: cell-based, Homo sapiens; details: U251, siRNA 48 h or Aurora-A inhibitor 30 min (250 nM)
Method: as §1, §2
For siRNA depletion, 1 × 10^5 cells were seeded in six-well plates and transfected as described above for 48 h prior to fixation. For all other experiments, 2.5 × 10^5 cells were seeded in six-well plates and grown for 24 h before fixation. […] Cells in Fig. EV4A were fixed using 4% (wt/v) paraformaldehyde (PFA) in PBS for 12 min, followed by 10 min quenching in 50 mM NH4Cl in PBS and 5 min of permeabilization with 0.2% (v/v) Triton X-100 in PBS, all at room temperature. For centriole staining in Fig. EV4E, cells were fixed in pre-chilled methanol for 10 min at −20 °C, incubated in PBS for 10 min and then 5 min in 0.5% Triton-X-100, 0.5% Tween, 0.05% SDS in PBS (v/v). To observe centromere and kinetochore staining in Fig. 7C and Appendix Fig. S8A, cells were fixed with PTEMF buffer (20 mM PIPES pH 6.8, 0.2% (v/v) Triton X-100, 10 mM EGTA, 1 mM MgCl2, 4% PFA (wt/v) in PBS) for 12 min at room temperature. For all other experiments, cells were fixed in pre-chilled methanol for 5 min at −20 °C. Following fixation, coverslips were blocked in 2% BSA (wt/v), 0.1% Tween (v/v) in PBS, this and all antibody incubation steps were carried out for 1 h at room temperature, unless otherwise stated. Primary and secondary antibody (Life technologies) dilutions were made in 0.1% Tween, PBS, with secondary staining being conducted in the dark. Coverslips were gently washed with three x 2 ml 0.2% Tween, PBS between antibody incubation steps. […]
as §3

| Compound | centrosomal/spindle pole Aurora-A-pT288 signal [1] | spindle (pole)-associated Aurora-A level ([2]; listed as TPX2 depletion) | spindle (pole)-associated Aurora-A level ([2]; listed as depletion of TPX2) | spindle (pole)-associated Aurora-A level ([2]; listed as Aurora-A inhibition) | spindle (pole)-associated Aurora-A level [2] |
| --- | --- | --- | --- | --- | --- |
| 5′-CGGUAGUGAUAAAAGCUCAtt-3′ [siTPX2] | diminished the intensity of pT288 signal | complete loss of Aurora-A from mitotic spindles | diminished levels of spindle pole-associated Aurora-A |  |  |
| COc1cc(Nc2ncc3c(n2)-c2ccc(Cl)cc2C(c2c(F)cccc2OC)=NC3)ccc1C(=O)O [Alisertib] | obliterated |  |  | significant drop |  |
| 5′-CAAACAACUUGGAAAUCGAtt-3′ [siCEP192] | diminished the intensity of pT288 signal |  |  |  | significant drop |
